We go through three compounds from PMC7927014, “Novel Small Molecule Hsp90/Cdc37 Interface Inhibitors Indirectly Target K-Ras-Signaling” (Cancers, 2021).

For one series, the system named is Gal3. In words: Western blotting of galectin-3. It counts as cell-based. Particulars: Western blot, 24 h; K-RasG12V-transfected HEK and MDA-MB-231 cells. The method, then: The cells were trypsinized, washed with PBS, and lysed in RIPA buffer (cat no. 89900, ThermoFisher Scientific) containing protease and phosphatase inhibitors (cat. no. A32959, ThermoFisher Scientific) and 1 mM phenylmethylsulfonyl fluoride (PMSF). The cells in the RIPA buffer were placed on ice for 20 min, and were then sonicated in ice cold water for 5 min. The lysates were centrifuged at 4 °C, and their protein was quantified using a BCA kit (cat. no. 23225, ThermoFisher Scientific). Equal amounts of protein were separated by 10% SDS-PAGE, and were then transferred onto a nitrocellulose membrane (cat. no. NBA 083C001EA, Protran) using a wet transfer system (Bio-Rad) or semidry Transferblot Turbo Transfer System (Bio-Rad). After the transfer, the membranes were blocked for 30 min in 5% skimmed milk dissolved in 1× TBST, and then incubated with 1:2000 primary antibodies in 5% BSA in TBST at 4 °C overnight. […]
The next day, the membranes were washed three times in TBST for 10 min, and then incubated with secondary antibodies (1:5000) diluted in 5% skimmed milk in TBST for 1 h at RT. […] The protein bands were detected with a ChemiDoc MP instrument (Bio-Rad) after treatment with an ECL reagent (cat. no. 170-5061, BioRad). […]
In general terms: In western blotting, separated proteins are transferred to a membrane and probed.

The test system of another series is HIF-1α. Description: Western blotting of HIF-1α in nuclear extracts. The series is classed as cell-based. Particulars: Western blot of nuclear extracts, 24 h; K-RasG12V-transfected HEK and MDA-MB-231 cells; conglobatin A 5 or 10 μM, 17-AAG 2 μM. As for the experimental part:
The cells in the RIPA buffer were placed on ice for 20 min, and were then sonicated in ice cold water for 5 min. […] Equal amounts of protein were separated by 10% SDS-PAGE, and were then transferred onto a nitrocellulose membrane (cat. no. NBA 083C001EA, Protran) using a wet transfer system (Bio-Rad) or semidry Transferblot Turbo Transfer System (Bio-Rad). After the transfer, the membranes were blocked for 30 min in 5% skimmed milk dissolved in 1× TBST, and then incubated with 1:2000 primary antibodies in 5% BSA in TBST at 4 °C overnight.
The next day, the membranes were washed three times in TBST for 10 min, and then incubated with secondary antibodies (1:5000) diluted in 5% skimmed milk in TBST for 1 h at RT. […] All of the antigens and molecular weights in kDa are labelled next to the blots on the figures. Uncropped Western blot data are attached as Figure S6.

On the set-up of series [1]: method as in PMID 24927996. Particulars: mice, 900 mg/kg; cited from earlier work.
The next series deals with HCC-44 cells. In words: Tumorosphere assay (low adhesion, serum-free 3D spheroid culture). It counts as cell-based. Particulars: Homo sapiens, HCC44; HCC-44 (lung, G12C), low attachment, serum-free, 72 h; read-out: 3D spheroid formation IC50. As for the experimental part: (§1) Per well, 2000 cells were seeded in flat bottom 96-well suspension culture plates (cat. no. 655185, Cellstar, Greiner Bio-One) in 100 µL DMEM or RPMI media containing 1× B27 (cat. no. 17504044, Gibco, Thermo Fisher Scientific), 25 ng/mL EGF (cat. no. E9644, Sigma-Aldrich), and 25 ng/mL FGF (cat. no. RP-8628, Thermo Fisher Scientific), 20% MethoCult H4100 (cat. no. 04100, […] Technologies). After 2 days, 50 µL media containing 0.3% DMSO or 3× the concentration of the indicated compounds were added to the wells in a 1:2 dilution-series, starting at 100 µM. After 72 h of treatment, 10% (v/v) alamarBlue reagent (cat. no. DAL1100, Thermo Fisher Scientific) was added to each well. Then, the fluorescence intensity (excitation 560 nm and emission 590 nm) was measured after 4 h using a H1 Hybrid Multi-Mode reader (BioTek).

The next series deals with SK-BR-3 cells. The series is described as above. The series is classed as cell-based. The note with it: Homo sapiens; SK-BR-3 (breast, n.a.), low attachment, serum-free, 72 h; read-out: 3D spheroid formation IC50. As for the experimental part: as §1
For the next series, the system named is MDA-MB-231 cells. The description is as above. It counts as cell-based. Particulars: Homo sapiens, MDA-MB-231, 72 h; read-out: 3D spheroid formation IC50. As for the experimental part: as §1
In another series the test system is MIA PaCa-2 cells. Described as above. The note with it: Homo sapiens; MIA PaCa-2 (pancreas), low attachment, serum-free, 72 h; read-out: 3D spheroid formation IC50. The series is classed as cell-based. The method, then: as §1

Regarding `C/C1=C\[C@H](C)C[C@H](C)[C@H](Cc2cnco2)OC(=O)/C(C)=C/[C@H](C)C[C@H](C)[C@H](Cc2cnco2)OC1=O` [conglobatin A, reference compound], the Gal3 levels result in the series on Gal3 is “dose-dependently reduced”. The “nuclear levels of HIF-1α” value with HIF-1α is “decreased the nuclear levels of HIF-1α”. For the same compound, the acute toxicity entry in series [1] was “well tolerated”.

On to `N=C(CSS(=O)(=O)O)NCC12CC3CC(CC(C3)C1)C2` [×6506, [({N-[(adamantan-1-yl)methyl]carbamimidoyl}methyl)sulfanyl]sulfonic acid], for which the 50% inhibitory concentration (IC50) (in general, the concentration at which inhibition is half-maximal) with HCC-44 cells was determined as 67 ± 5 µM; in the series on SK-BR-3 cells it was 36 ± 4 µM; in the series on MDA-MB-231 cells it was 26 ± 1 µM; in the series with MIA PaCa-2 cells it was 30 ± 3 µM.

For `CCOc1ccc(C(=O)c2ccc(O)c(O)c2O)cc1` [×1540, 2,3,4-TRIHYDROXY-4'-ETHOXYBENZOPHENONE], the IC50 was 52 ± 6 µM with HCC-44 cells, 64 ± 5 µM in the series on SK-BR-3 cells, 58 ± 5 µM in the series with MDA-MB-231 cells and 53 ± 6 µM in the series on MIA PaCa-2 cells.
